Test results as given in patent US12306176B2, “Microfluidic bi-directional migration assay” (Ohio State Innovation Foundation, priority 2017, dated 2025).

Tests used:
[1] = tested on: lactate dehydrogenase (LDH); experiment: LDH activity colorimetric kinetic assay; format: cell-based, human; conditions: EGF 25 ng/mL, 12 hours; not significant
Description: (§1) To investigate whether iEF has an effect on metabolic function of MDA-MB-231 cells, the activity levels of lactate dehydrogenase (LDH) and succinate dehydrogenase (SDH) were examined. LDH is an enzyme that catalyzes the interconversion of pyruvate to lactate as part of the glycolysis chain (Pelicano H, et al. (2006) Oncogene 25 (34):4633). SDH is an enzyme within Complex II of the mitochondria that is utilized in both the tricarboxylic acid (TCA) cycle as well as oxidative phosphorylation (OXPHOS) (Gottlieb E & Tomlinson IP (2005) Nat Rev Cancer. 5 (11):857). As part of the TCA cycle, SDH catalyzes the oxidation of succinate to fumarate, and as part of OXPHOS, SDH transfers two electrons from flavin adenine dinucleotide into the electron transport chain (Gottlieb E & Tomlinson IP (2005) Nat Rev Cancer. 5 (11):857). To determine whether LDH or SDH activity levels were changing, colorimetric kinetic assays were employed. […]
(§2) 1×10^6 cells/well were plated in 6 well plates in growth media for 12 hours followed by migration media (0.1% FBS) for an additional 12 hours. […] The LDH activity assay kit (Sigma-Aldrich, MAK066) and the SDH activity colorimetric assay kit (Sigma-Aldrich, MAK197) were used to quantify LDH and SDH activity respectively. […] For quantification of LDH and SDH, the protocols provided by the supplier were followed. […]

[2] = tested on: succinate dehydrogenase (SDH); experiment: SDH activity colorimetric kinetic assay; format: cell-based, human; conditions: EGF 25 ng/mL, 12 hours; not significant
Description: as §1, §2

- change of LDH activity from control [1]: < 6%
- increase of SDH activity [2]: 23%
Substance: epidermal growth factor [EGF]
